The source of these data is patent publication US20130136714A1, “FUNCTIONALIZED POLYMER NANOPARTICLES AND THE PHARMACEUTICAL USE THEREOF” (KAOHSIUNG MEDICAL UNIVERSITY, priority 2011, published 2013).

In brackets after ≈: the same amount, converted by molar mass.

A short description of data set [1]: drug release of EPI micelles by dialysis in PBS buffer. Type of data set: physicochemical. Particulars: pH = 7.4, 6.4 and 5.6. On the procedure: […] The outside PBS buffer is collected at different time points and then the fresh 30 mL PBS buffer is replaced. The drug concentration is measured and calculated based on a calibration curve generated in PBS buffer with the same pH value.

A further data set relates to KB cells. Put plainly: cytotoxic test (IC50) for the EPI-loaded micelles (MTT). Particulars: Homo sapiens. The class given is cell-based. On the procedure: The results of the cytotoxic test for the drug-loaded micelle are presented as the half maximal inhibitory concentration, i.e. IC50, which is used to examine the biological or biochemical inhibitory effect of a compound. Thus, the IC50 represents the concentration of the drug-loaded micelle required to inhibit the growth of a half of the cancer cells.
5×10^3 cells/well KB cells are incubated in 100 μL of RPMI 1640 medium, and transferred into the 96-well plate for incubating 24 hrs.
Epirubicin.HCl and drug-loaded micelle is prepared at 20 μg/mL, in RPMI 1640 medium. After a serial of dilution, 100 μL/well of each concentration (20, 10, 5, 2.5, 1.25, 1 and 0.5 μg/mL) is added into the cultured plate for 24 hrs incubation.
After 24 hrs incubation, the medium containing the drug and the micelle is removed, and the plate is washed with 100 μL/well PBS buffer at pH=7.4 and further incubated in 100 μL/well fresh medium for 24 and 48 hrs.
The plate is added with 50 μL/well (2 mg/mL) MTT and placed in the incubator for 3 hrs. […] Then, the cell viability is calculated using the ELISA reader.

The subject of another data set is KB cell line. Put plainly: intracellular delivery by confocal laser scanning microscope. The class given is cell-based, human. Particulars: 0.625 μg/mL, cells incubated for 1 h. On the procedure:
Human oral cancer cell line (KB cell line) is used to investigate the cell viability of the carrier and the drug-loaded micelle, and the expression of the drug-loaded micelle through the endocytosis is observed using a confocal laser scanning microscope (CLSM). The 4′,6-diamidino-2-phenylindole (DAPI) and the lysosomal probe (Lyso-Traker) are used for cell core staining and the lysosome staining, respectively. The drug at the concentration of 0.625 μg/mL is added according to the cell viability for the drug-loaded micelle. The KB cell line is cultured for 0.5, 1, 3, and 24 hrs, in which the blue parts are shown by the DAPI staining at the cell core; the red is the fluorescence of the EPI; the green is the fluorescence of the Lyso-Traker, and the purple is the overlap of EPI and DAPI and the yellow is the overlap of Lyso-Traker and EPI. The amounts of EPI entering the nuclei and the lysosomes (the purple and the yellow images) increase with the increase in the incubation time.
Intracellular delivery is observed using the confocal microscope. 18 mm cover slip is immersed in 0.1N HCl solution for one day and washed to remove the impurities on the slide. After being rinsed by the ddH2O, the slide is wiped and then immersed in 75% alcohol. […]

The target in data set [2] is folic acid receptors (FAR). Particulars: read-out: dissociation constant (kd); cited from earlier work.

What is called IC50 is the point on the concentration scale where inhibition reaches its midpoint. Lower therefore signals greater potency. As for `COc1cccc2c1C(=O)c1c(O)c3c(c(O)c1C2=O)C[C@@](O)(C(=O)CO)C[C@@H]3O[C@H]1C[C@H](N)[C@@H](O)[C@H](C)O1` [EPI, Epirubicin], the “drug release rate (in words)” value in data set [1] is on record as “quickly released in a short time”. Also, the IC50 with KB cells (incubating time 24 hr) amounted to 0.35 µg/mL (≈ 0.644 µM); in the data set with KB cells (incubating time 48 hr) it was 0.2 µg/mL (≈ 0.368 µM). Further, the “intracellular location of EPI fluorescence” value in the data set on KB cell line is “observed in the cell nuclei rather than in cytoplasm”.

In general, Kd refers to the free concentration of one partner at which half of the binding sites on the other are occupied at equilibrium, for simple one-to-one binding. With `Nc1nc2ncc(CNc3ccc(C(=O)N[C@@H](CCC(=O)O)C(=O)O)cc3)nc2c(=O)[nH]1` [folic acid], in data set [2], the Kd was 0.1 nM.
